Data taken from patent US20050208496A1, “Methods of testing for bronchial asthma or chronic obstructive pulmonary disease” (Genox Research, Inc., priority 2002, published 2005).

System: mouse counterpart genes
Test: Mouse GeneChip (MG-U74A to MG-U74C) analysis of lung and trachea of the OVA antigen-exposed bronchial hypersensitivity model, S-Sal group versus S-OVA group
Assay type: in vivo
Settings: S-Sal group vs S-OVA group

ovalbumin [OVA antigen, ovalbumin antigen used for sensitization and inhalation to induce bronchial hypersensitivity in mice]
2.3: Fold Change, growth arrest and DNA-damage-inducible 45 gamma (mouse Probe ID 101979_at) (chip A, 1st) | Fold Change, nitric oxide synthase 2, inducible, macrophage (mouse Probe ID 104420_at) (chip A, 1st) | Fold Change, fructose bisphosphatase 1 (mouse Probe ID 96918_at) (chip A, 2nd)
1.2: Fold Change, histocompatibility 2, Q region locus 7 (mouse probe 98438_f_at) (3rd, chip A, P/A call P, counterpart of human probe 37420_i_at) | Fold Change, histocompatibility 2, Q region locus 7 (mouse probe 98438_f_at) (3rd, chip A, P/A call P, counterpart of human probe 37421_f_at) | Fold Change, interferon-induced protein with tetratricopeptide repeats 1 (mouse probe 168299_f_at) (3rd, chip C, P/A call P) | Fold Change, osteoblast specific factor 2 (fasciclin I-like) (mouse Probe ID 92593_at) (chip A, 1st) | Fold Change, thioredoxin reductase 1 (mouse Probe ID 99985_at) (chip A, 1st) | Fold Change, intercellular adhesion molecule (mouse Probe ID 96752_at) (chip A, 2nd) | Fold Change, interleukin 13 receptor, alpha 2 (mouse Probe ID 95344_at) (chip A, 3rd)
1.5: Fold Change, ESTs Putative Ortholog of ISG-54K gene (mouse probe 164273_at) (3rd, chip B, P/A call A) | Fold Change, interleukin 13 receptor, alpha 2 (mouse Probe ID 95344_at) (chip A, 2nd) | Fold Change, thrombospondin 1 (mouse Probe ID 160469_at) (chip A, 3rd) | Fold Change, RIKEN cDNA 2610017M01 gene (mouse Probe ID 105606_at) (chip B, 1st)
1.6: Fold Change, matrix metalloproteinase 7 (mouse probe 92917_at) (3rd, chip A, P/A call A) | Fold Change, 2′-5′ oligoadenylate synthetase 1A (mouse Probe ID 102717_at) (chip A, 1st) | Fold Change, proteosome (prosome, macropain) subunit, beta type 9 (mouse Probe ID 93085_at) (chip A, 2nd) | Fold Change, interferon-induced protein with tetratricopeptide repeats 1 (mouse Probe ID 100981_at) (chip A, 3rd) | Fold Change, sialyltransferase 1 (beta-galactoside alpha-2,6-sialyltransferase) (mouse Probe ID 94431_at) (chip A, 3rd)
8: Fold Change, arachidonate 15-lipoxygenase (mouse probe 98758_at) (3rd, chip A, P/A call P)
0.667: Fold Change, polycystic kidney disease 2 (mouse probe 100951_at) (3rd, chip A, P/A call P) | Fold Change, hydroxysteroid (17-beta) dehydrogenase 2 (mouse Probe ID 101891_at) (chip A, 2nd)
0.4: Fold Change, heparan sulfate (glucosamine) 3-)-sulfotransferase 1 (mouse Probe ID 102410_at) (chip A, 2nd)
0.385: Fold Change, sialyltransferase 1 (beta-galactoside alpha-2,6-sialyltransferase) (mouse Probe ID 94431_at) (chip A, 1st)
0.357: Fold Change, intercellular adhesion molecule (mouse Probe ID 1011414_at) (chip A, 2nd)
2: Fold Change, small inducible cytokine B subfamily (Cys-X-Cys), member 10 (mouse Probe ID 93858_at) (chip A, 3rd)
5.4: Fold Change, growth arrest and DNA-damage-inducible 45 gamma (mouse Probe ID 101979_at) (chip A, 2nd)
2.1: Fold Change, proteosome (prosome, macropain) subunit, beta type 9 (mouse Probe ID 93085_at) (chip A, 1st)
1: Fold Change, A kinase anchor protein 2 (mouse probe 101435_at) (3rd, chip A, P/A call P) | Fold Change, DNA segment. Chr 16. ERATO Doi 269, expressed (mouse probe 97821_at) (3rd, chip A, P/A call P) | Fold Change, claudin 4 (mouse probe 101410_at) (3rd, chip A, P/A call P) | Fold Change, interferon-stimulated protein (20 kDa) (mouse probe 103432_at) (3rd, chip A, P/A call P) | Fold Change, deleted in bladder cancer chromosome region candidate 1 (human) Putative Ortholog (mouse probe 166806_at) (3rd, chip C, P/A call P) | Fold Change, intercellular adhesion molecule (mouse Probe ID 1011414_at) (chip A, 1st) | Fold Change, transglutaminase 2, C polypeptide (mouse Probe ID 93352_at) (chip A, 1st) | Fold Change, heparan sulfate (glucosamine) 3-)-sulfotransferase 1 (mouse Probe ID 102410_at) (chip A, 3rd) | Fold Change, intercellular adhesion molecule (mouse Probe ID 1011414_at) (chip A, 3rd) | Fold Change, osteoblast specific factor 2 (fasciclin I-like) (mouse Probe ID 92593_at) (chip A, 3rd) | Fold Change, thioredoxin reductase 1 (mouse Probe ID 99985_at) (chip A, 3rd) | Fold Change, RIKEN cDNA 2610017M01 gene (mouse Probe ID 163053_at) (chip B, 1st)
1.8: Fold Change, interferon gamma inducible protein 30 (mouse probe 97444_at) (3rd, chip A, P/A call A) | Fold Change, hydroxysteroid (17-beta) dehydrogenase 2 (mouse Probe ID 101891_at) (chip A, 1st) | Fold Change, interferon-induced protein with tetratricopeptide repeats 1 (mouse Probe ID 100981_at) (chip A, 1st) | Fold Change, thioredoxin reductase 1 (mouse Probe ID 161043_r_at) (chip A, 2nd)
1.4: Fold Change, ESTs, Highly similar to AF116721 8 PRO0907 [H. sapiens] (mouse probe 114151_at) (3rd, chip B, P/A call A) | Fold Change, heparan sulfate (glucosamine) 3-)-sulfotransferase 1 (mouse Probe ID 102410_at) (chip A, 1st) | Fold Change, interleukin 13 receptor, alpha 2 (mouse Probe ID 95344_at) (chip A, 1st) | Fold Change, thioredoxin reductase 1 (mouse Probe ID 161043_r_at) (chip A, 1st)
0.286: Fold Change, viral hemorrhagic septicemia virus(VHSV) induced gene 1 (mouse probe 109385_at) (3rd, chip B, P/A call A)
1.7: Fold Change, 2′-5′ oligoadenylate synthetase 1A (mouse Probe ID 102717_at) (chip A, 2nd) | Fold Change, small inducible cytokine B subfamily (Cys-X-Cys), member 10 (mouse Probe ID 93858_at) (chip A, 2nd) | Fold Change, thrombospondin 1 (mouse Probe ID 160469_at) (chip A, 2nd) | Fold Change, fructose bisphosphatase 1 (mouse Probe ID 96918_at) (chip A, 3rd)
1.9: Fold Change, met proto-oncogene (mouse probe 100309_at) (3rd, chip A, P/A call A) | Fold Change, cholesterol 25-hydroxylase (mouse probe 104509_at) (3rd, chip A, P/A call P) | Fold Change, decay accelerating factor 1 (mouse probe 107626_at) (3rd, chip B, P/A call P) | Fold Change, interferon-induced protein with tetratricopeptide repeats 1 (mouse Probe ID 100981_at) (chip A, 2nd) | Fold Change, growth arrest and DNA-damage-inducible 45 gamma (mouse Probe ID 101979_at) (chip A, 3rd)
0.5: Fold Change, phosphotidylinositol transfer protein, beta (mouse probe 102697_at) (3rd, chip A, P/A call A) | Fold Change, transforming growth factor, beta 2 (mouse Probe ID 93300_at) (chip A, 3rd)
0.588: Fold Change, thioredoxin reductase 1 (mouse Probe ID 161043_r_at) (chip A, 3rd)
0.476: Fold Change, DnaJ (Hsp40) homolog, subfamily A, member 1 (mouse Probe ID 97261_at) (chip A, 1st)
2.2: Fold Change, 2′-5′ oligoadenylate synthetase 1A (mouse Probe ID 102717_at) (chip A, 3rd) | Fold Change, interferon-stimulated protein (15 kDa) (mouse Probe ID 98822_at) (chip A, 3rd)
1.3: Fold Change, matrix metalloproteinase 7 (mouse probe 162318_r_at) (3rd, chip A, P/A call A) | Fold Change, decay accelerating factor 1 (mouse probe 103617_at) (3rd, chip A, P/A call P) | Fold Change, SAM domain and HD domain, 1 (mouse Probe ID 103080_at) (chip A, 1st) | Fold Change, intercellular adhesion molecule (mouse Probe ID 96752_at) (chip A, 1st) | Fold Change, small inducible cytokine B subfamily (Cys-X-Cys), member 10 (mouse Probe ID 93858_at) (chip A, 1st) | Fold Change, SAM domain and HD domain, 1 (mouse Probe ID 103080_at) (chip A, 2nd) | Fold Change, sialyltransferase 1 (beta-galactoside alpha-2,6-sialyltransferase) (mouse Probe ID 94431_at) (chip A, 2nd) | Fold Change, thioredoxin reductase 1 (mouse Probe ID 161284_r_at) (chip A, 2nd) | Fold Change, transglutaminase 2, C polypeptide (mouse Probe ID 93352_at) (chip A, 2nd)
4.6: Fold Change, a disintegrin and metalloprotease domain 8 (mouse probe 103024_at) (3rd, chip A, P/A call P)
0.526: Fold Change, A kinase (PRKA) anchor protein 10 (mouse probe 163162_at) (3rd, chip B, P/A call A)
4.1: Fold Change, interferon gamma inducible protein 30 (mouse probe 164423_at) (3rd, chip B, P/A call A)
0.625: Fold Change, secreted end transmembrane 1 (mouse probe 115133_at) (3rd, chip B, P/A call A) | Fold Change, cyclin D3 (mouse Probe ID 160545_at) (chip A, 1st)
4.3: Fold Change, interferon-stimulated protein (15 kDa) (mouse Probe ID 98822_at) (chip A, 1st)
0.833: Fold Change, low density lipoprotein receptor-related protein associated protein 1 (mouse probe 100086_at) (3rd, chip A, P/A call P) | Fold Change, cadherin 6 (mouse Probe ID 101730_at) (chip A, 1st) | Fold Change, transforming growth factor, beta 2 (mouse Probe ID 93300_at) (chip A, 2nd) | Fold Change, DnaJ (Hsp40) homolog, subfamily A, member 1 (mouse Probe ID 97261_at) (chip A, 3rd) | Fold Change, cyclin D3 (mouse Probe ID 160545_at) (chip A, 3rd) | Fold Change, transglutaminase 2, C polypeptide (mouse Probe ID 93352_at) (chip A, 3rd)
4.2: Fold Change, interferon-stimulated protein (15 kDa) (mouse Probe ID 98822_at) (chip A, 2nd)
1.1: Fold Change, DNA segment. Chr 16. ERATO Doi 269, expressed (mouse probe 97823_g_at) (3rd, chip A, P/A call P) | Fold Change, low density lipoprotein receptor-related protein associated protein 1 (mouse probe 161988_f_at) (3rd, chip A, P/A call P) | Fold Change, membrane-associated protein 17 (mouse probe 96935_at) (3rd, chip A, P/A call P) | Fold Change, decay accelerating factor 1 (mouse probe 164905_r_at) (3rd, chip B, P/A call A) | Fold Change, thrombospondin 1 (mouse Probe ID 160469_at) (chip A, 1st) | Fold Change, cadherin 6 (mouse Probe ID 101730_at) (chip A, 2nd) | Fold Change, cyclin D3 (mouse Probe ID 160545_at) (chip A, 2nd) | Fold Change, nitric oxide synthase 2, inducible, macrophage (mouse Probe ID 104420_at) (chip A, 2nd) | Fold Change, proteosome (prosome, macropain) subunit, beta type 9 (mouse Probe ID 93085_at) (chip A, 3rd)
2.4: Fold Change, interleukin 1 receptor-like 1 (mouse probe 98500_at) (3rd, chip A, P/A call P)
